Experimental data from patent US10688063B2, “Treating and/or preventing insulin-resistance related weight gain” (University of South Florida, priority 2013, dated 2020).

Experiments:
aPKC [1] = experiment: aPKC activity in brains of heterozygous muscle-specific PKC-λ knockout mice (Western); format: in vivo, mouse; conditions: treated for 8 days
Procedure: Standard lab mice (“control” or “con” mice) and heterozygous muscle-specific PKC-λ knockout mice were fed standard chow containing 10% fat. Some mice were treated for 8 days with ICAPP. Some mice were acutely treated with insulin (1 U/kg body weight administered intraperitoneally) 15 minutes prior to killing. Brain tissues were collected and prepared for phospho-protein analysis. Activity/activation of aPKC was assessed by Western blot analyses of phospho-protein immunoreactivity followed by quantitative scanning of the blots.

[2] = Glucose tolerance, serum parameters, body weight, food intake, liver and abdominal fat in HFF mice; format: in vivo, mouse
Procedure: Briefly, […] body weight was injected intraperitoneally. After the glucose injection, blood glucose levels were measured at 0, 30, 60, 90 and 120 minutes post-injection. 15 minutes prior to killing, mice were injected with or without insulin (1 U/kg body weight). Serum glucose, triglycerides, and serum cholesterol were measured using methods generally known in the art. Liver triglycerides were also measured using methods generally known in the art. Over the 10 weeks, body weight and food intake were measured weekly. Overall change in bodyweight was also evaluated. Additionally, epididymal plus retroperitoneal fat (also abbreviated PG/PN fat) was measured and evaluated as g/100 g of body weight. After killing, liver tissue samples were sectioned and prepared for Oil red O staining by methods generally known in the art. Samples were Oil Red O stained to observe hepatic fat contents.

[3] = test system: Ser473-Akt, Ser9-GSK3β, Thr555/560-PKC-λ/ζ, Thr2448-mTOR; experiment: Hepatic phosphorylation of Ser473-Akt, Ser9-GSK3β, Thr555/560-PKC-λ/ζ, Thr2448-mTOR in HFF mice (Western); format: in vivo, mouse; conditions: 10 weeks
Procedure: (§1) Post mortem, liver tissue was removed and examined for immunoreactivity of the indicated signaling factors.
Tissue Preparation: To prepare cell lysates, liver and muscle tissue samples were homogenized in ice-cold buffer containing 0.25 mol/l sucrose, 20 mmol/l Tris/HCl (pH, 7.5), 2 mmol/l EGTA, 2 mmol/l EDTA, 1 mmol/l phenlysulfonlyfluoride (PMSF), 20 μg/ml leupeptin, 10 μg/ml aprotinin, 2 mmol/l Na4P2O7, 2 mmol/l Na3VO4, 2 mmol/l NaF, and 1 μmol/l microcystin, and then supplemented with 1% TritonX-100, 0.6% Nonidet and 150 mmol/l NaCl, and cleared by low-speed centrifugation.
Western Analysis: Western analysis for the indicated signaling factors and GAPDH (endogenous control) were conducted as described in Sajan and Farese. 2012 Diabetologia. 55:1446-1457, Standaert et al. 2004. J. Biol. Chem. 279:24929-24934, Sajan et al. 2012. Metabolism. 61:459-469, Sajan et al. 2009. Diabetologia. 52:1197-1207, Sajan et al. 2009. J. Lipid Res. 50:1133-1145, and Sajan et al. 2013. Diabetologia. 56:2507-2516 using […] anti-phospho-Ser^473-Akt antiserum, rabbit anti-glyceraldehyde-phosphate dehydrogenase (GAPDH) antiserum, rabbit anti-WD40-ProF antiserum, and rabbit anti-aPKC antiserum (Santa Cruz Biotechnologies, Santa Cruz, Calif.); rabbit anti-phospho-Thr560/555 PKC-ζ/λ/ι antiserum (Invitrogen, Carlsbad, Calif.); rabbit anti-p-Ser^256-FoxO1 and anit-FoxO1 antiserum (Abnova, Walnut, Calif.); mouse monoclonal anti-PKC-λ/ι antibodies (Transduction Antibodies, Bedford, Mass.); and rabbit anti-phospho-Ser^9-GSK3β antiserum, rabbit anti-phosphoSer^[…]-mTOR antiserum, and mouse anti-Akt antibodies (Cell Signaling Technologies, Danvers, Mass.). Samples from experimental groups were compared on the same blots and corrected for recovery as needed by measurement of GAPDH immunoreactivity.

[4] = test system: SREBP-1c, FAS, PEPCK, G6Pase; experiment: Hepatic mRNA and protein levels of lipogenic and gluconeogenic enzymes in HFF mice; format: in vivo, mouse; conditions: 10 weeks, ad libitum-fed
Procedure: as §1
Nuclear preparations were also prepared as described in Sajan et al. 2009. Diabetologia. 52:1197-1207. Western analysis was conducted to evaluate the indicated immunoreactive proteins as in Example 7, except in this Example, rabbit polyclonal anti-GAPDH antiserum, rabbit polyclonal anti-FAS antiserum, rabbit polyclonal anti-PEPCK antiserum, rabbit polyclonal anti-G6Pase antiserum (Santa Cruz Biotechnologies, Santa Cruz, Calif.), and mouse monoclonal anti-SREBP-1 antibodies (Lab Vision Corp., Freemont, Calif.) were used to detect the indicated proteins.

aPKC [5] = experiment: aPKC activity in liver and muscle of high fat fed (HFF) mice, 10 weeks treatment; format: in vivo, mouse; conditions: daily s.c. 10 weeks
FoxO1, WD40/ProF = experiment: Hepatic Ser256-FoxO1 phosphorylation and aPKC/Akt in WD40/ProF immunoprecipitates in HFF mice; format: in vivo, mouse; conditions: 10 weeks
Procedure: as §1
For the results shown in FIG. 10A, liver cell lysates were prepared as previously described. Phosphorylated FoxO1 and un-phosphorylated FoxO1 were analyzed using western blotting as previously described except rabbit anti-phospho-Ser^256-FoxO1 antisera and anti-FoxO1 antiserum was used.
For the results in FIG. 10B, the indicated immunoreactive proteins were analyzed in the immunopercipitates via western blot as previously described except that rabbit anti-aPKC-λ/ι, FoxO1, or WD40/ProF antisera were used.

Akt2 = target: T1, Akt2 (Mus musculus, UniProt Q60823); experiment: Akt2 activity in liver and muscle of HFF mice, 10 weeks treatment; format: in vivo; conditions: daily s.c. 10 weeks
T1 construct: from tissue; host or cells: mouse liver and muscle
T1 sequence (Q60823 whole entry): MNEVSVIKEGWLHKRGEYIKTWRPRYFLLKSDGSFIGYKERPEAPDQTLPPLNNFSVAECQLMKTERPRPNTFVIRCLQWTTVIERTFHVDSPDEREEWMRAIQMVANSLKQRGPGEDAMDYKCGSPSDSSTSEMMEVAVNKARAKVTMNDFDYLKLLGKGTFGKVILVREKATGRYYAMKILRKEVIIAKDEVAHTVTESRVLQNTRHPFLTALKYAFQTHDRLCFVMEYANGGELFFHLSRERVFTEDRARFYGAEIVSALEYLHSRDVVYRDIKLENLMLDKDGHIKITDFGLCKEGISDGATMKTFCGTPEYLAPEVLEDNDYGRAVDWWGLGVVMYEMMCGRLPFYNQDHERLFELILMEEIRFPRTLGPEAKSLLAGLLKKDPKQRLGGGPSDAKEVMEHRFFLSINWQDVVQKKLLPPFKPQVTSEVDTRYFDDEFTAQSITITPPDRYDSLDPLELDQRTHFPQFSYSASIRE

aPKC [6] = experiment: Effect of ceramide on aPKC immunoprecipitated from liver lysates of LF and HF fed mice; format: biochemical, mouse
Procedure: Standard (C57BI/6/SV129) mice consumed a standard low-fat or high-fat diet for 10 weeks. At 10 weeks mice were treated with or without insulin for 15 min prior to killing. Liver cell lysates were prepared as in Example 5 and aPKC activity assay was performed on the aPKC immunoprecipitate as in Example 5, except here the activity assays were carried out in the presence of the indicated concentrations of ceramide. Additionally, the levels of ceramide and sphingomyelin species in lipid extracts prepared from the liver cell lysates. Ceramide and sphingomyelin species were measured by liquid chromatography tandem mass spectrometry analysis of the lipid extracts of the liver lysates.

[7] = toward, not fully to, normal levels

**Q.** Which “aPKC activity in the brain” value (aPKC [1]) does the source give for `NC(=O)c1ncn([C@@H]2C[C@H](COP(=O)(O)O)[C@@H](O)[C@H]2O)c1N` [ICAPP] here?
**A.** decreased

**Q.** What does the source list for `NC(=O)c1ncn(C2CC(COP(=O)(O)O)C(O)C2O)c1N` (stereo not drawn) [ICAP]?
**A.** HFF-induced increases in abdominal fat depots ([2]; 10 weeks): improved; food intake ([2]; 10 weeks): without altering; increases in liver triglycerides and fat content ([2]; 10 weeks): largely prevented; increases in serum triglycerides and cholesterol levels ([2]; 10 weeks): largely prevented; weight gain ([2]; 10 weeks): largely prevented; fasting insulin levels ([2]; still modestly elevated): improved; glucose tolerance, basal glucose levels (fasting and fed), acute effects of insulin on serum glucose ([2]; to levels indistinguishable from control chow-fed mice): improved; hepatic phosphorylation of Ser9-GSK3β and Ser2448-mTOR [3]: not altered; insulin-stimulated Akt2 activity in liver (Ser473-Akt phosphorylation) [3]: increased; resting Akt2 activity in liver (Ser473-Akt phosphorylation) [3]: did not alter; basal/resting and exogenous insulin-stimulated hepatic aPKC activities (Thr555/560 phosphorylation) ([3]; to levels of control low fat fed mice): reduced; hepatic mRNA levels of SREBP-1c, FAS, PEPCK, G6Pase versus control/low-fat fed mice [4]: not significantly different; hepatic protein levels of SREBP-1c, FAS, PEPCK, G6Pase versus control/low-fat fed mice [4]: not significantly different; resting and insulin-stimulated hepatic aPKC activity (aPKC [5]; ICAP 1 mg/kg, ACPD 10 mg/kg, to control levels): diminished; muscle aPKC activity (aPKC [5]; [7]): increased; WD40/ProF-associated Akt activity (FoxO1, WD40/ProF; HFF mice liver): increased; aPKC binding to WD40/ProF (FoxO1, WD40/ProF; HFF mice liver): diminished; basal/resting and insulin-stimulated hepatic FoxO1 phosphorylation (FoxO1, WD40/ProF; HFF mice): fully or partially restored; hepatic Akt2 activity (Akt2; ICAP 1 mg/kg, ACPD 10 mg/kg): increased further; muscle Akt2 activity (Akt2; [7]): increased

**Q.** With ceramide as the compound, how does the “activity of aPKC immunoprecipitated from liver lysates” value (“activity of aPKC immunoprecipitated” below) (aPKC [6]; HFF mice) read?
**A.** only a weak effect

**Q.** And the “activity of aPKC immunoprecipitated” value (aPKC [6]; HFF mice treated acutely with insulin)?
**A.** diminished activity

**Q.** And the “activity of aPKC immunoprecipitated” value (aPKC [6]; LFF/control mice)?
**A.** strongly activated
